Like-named read-outs stand apart in the source and are kept apart here.
Columns and labels:
[1] = tested on: nine human cancer cell lines and three non-cancerous cell lines; additional colon cancer cells; assay: MTT cell survival assay, statements over several cell lines; assay type: cell-based; conditions: for IC50: Homo sapiens
[2] = tested on: HEK293/R2 (ABCG2-overexpressing cells); assay: MTT cytotoxicity in ABCG2-overexpressing cells; assay type: cell-based, human; conditions: HEK293/R2 vs HEK293/pcDNA3.1, MTT
HCT-116 cells = assay: Chromosomal DNA fragmentation assay; assay type: cell-based, human; conditions: 2.5 μM, 6 hr
[3] = tested on: HCT-116, HCT-15, and HEK293 cells; assay: Morphological analysis by microscopy; assay type: cell-based, human; conditions: 0, 0.5, 2, or 10 μM, 68 hrs of treatment; HCT-116, HCT-15, HEK293
human PXR = molecular target: T1, human PXR (Homo sapiens, UniProt O75469); assay: PXR transactivation assay; conditions: HepG2 reporter gene assay, 24 hr treatment, vs DMSO; IND-2 at 1 or 10 μM
T1 sequence (O75469 1-434): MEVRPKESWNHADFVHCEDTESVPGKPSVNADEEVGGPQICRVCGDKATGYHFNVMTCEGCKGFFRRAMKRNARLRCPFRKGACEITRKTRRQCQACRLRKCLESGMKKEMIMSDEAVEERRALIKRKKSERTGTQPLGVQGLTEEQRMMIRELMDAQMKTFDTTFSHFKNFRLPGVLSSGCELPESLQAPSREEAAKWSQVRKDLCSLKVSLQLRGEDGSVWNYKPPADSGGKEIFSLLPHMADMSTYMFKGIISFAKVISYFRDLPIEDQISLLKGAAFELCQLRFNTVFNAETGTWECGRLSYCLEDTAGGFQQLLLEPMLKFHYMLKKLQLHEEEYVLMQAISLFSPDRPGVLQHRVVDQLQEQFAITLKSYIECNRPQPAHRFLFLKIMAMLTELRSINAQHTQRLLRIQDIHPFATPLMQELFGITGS

[4] = tested on: HCT-116 colon cancer cells; assay: MTT cell survival assay, HCT-116; assay type: cell-based; conditions: Homo sapiens, HCT-116, read-out: IC50 ± SD, HCT-116
HEK293/ABCB1 cells = assay: MTT cytotoxicity in ABCB1-overexpressing cells; assay type: cell-based, human; conditions: HEK293/ABCB1 vs HEK293/pcDNA3.1, MTT
HepG2 cells = conditions: 24 hr, CellTiter-Glo
[5] = tested on: S1-M1-80 cells (G482 mutant ABCG2-overexpressing); assay: MTT cytotoxicity in drug-resistant colon cancer cells; assay type: cell-based, human; conditions: S1-M1-80 vs S1, MTT; p < 0.001

Q: How did the IC50 ([1]; read-out: IC50 on the tested cells) turn out when `Cc1cc(=O)n2nc3nc4ccccc4cc3c2[nH]1` [IND-1, 2-Methylpyrimido[1”,2”:1,5]pyrazolo[3,4-b]quinoline-4(1H)-one] was run?
A: > 40 µM

Q: How did the “resistance of ABCG2-overexpressing cells” value [2] turn out when `Cc1cc(Cl)n2nc3nc4ccccc4cc3c2n1` [IND-2, 4-Chloro-2-methyl pyrimido[1“,2”:1,5]pyrazolo[3,4-b]quinoline] was run?
A: no substantial resistance

Q: What about the “fragmentation of chromosomal DNA” value (HCT-116 cells) of the same compound?
A: led to fragmentation of chromosomal DNA

Q: And the “morphological changes of cells” value [3]?
A: morphological changes

Q: What about the IC50 ([1]; DU-145, read-out: IC50 values against prostate cancer cells) of the same compound?
A: 0.8 to 1.2 µM

Q: And the IC50 ([1]; read-out: IC50 values on colon cancer cells)?
A: < 1 µM

Q: And the “selectivity for inhibition of colon cancer cells relative to HEK293 cells” value ([1]; colon cancer cells vs HEK293)?
A: 10-15 fold

Q: What about the “selectivity relative to NIH/3T3 mouse fibroblast cells and MDCK cells” value ([1]; colon cancer cells vs NIH/3T3 and MDCK) of the same compound?
A: 20-40 fold

Q: What about the “selectivity for colon cancer cells relative to other cancer cells” value ([1]; vs breast, ovarian, and hepatocellular carcinoma cells) of the same compound?
A: 10-30 fold

Q: What about the “PXR transactivation of CYP3A4 promoter activity” value (human PXR) of the same compound?
A: did not affect PXR transactivation

Q: What about the IC50 [4] of the same compound?
A: 0.635 ± 0.12 µM

Q: And the “resistance of ABCB1-overexpressing cells” value (HEK293/ABCB1 cells)?
A: no substantial resistance

Q: And the “HepG2 cell viability (cytotoxicity)” value (HepG2 cells; 1 μM)?
A: non-cytotoxic

Q: What about the “HepG2 cell viability (cytotoxicity)” value (HepG2 cells; 10 μM) of the same compound?
A: marginally cytotoxic

Q: With `Cc1cc(N(C)C)n2nc3nc4ccccc4cc3c2n1` [IND-3, N,N,2-Trimethyl benzopyrido[2’,3’:3,4]pyrazolo[1,5-a]pyrimidin-4-amine] as the compound, how does the IC50 ([1]; read-out: IC50 values against ovarian and breast cancer cells) read?
A: 44 to 50 µM

Q: Which “resistance of S1-M1-80 cells to the drug” value [5] does the source give for `CCc1c2c(nc3ccc(O)cc13)-c1cc3c(c(=O)n1C2)COC(=O)[C@]3(O)CC` [SN-38] here?
A: significant resistance

Q: With `CC[C@@]1(O)C(=O)OCc2c1cc1n(c2=O)Cc2cc3c(CN(C)C)c(O)ccc3nc2-1` [topotecan] as the compound, how does the “resistance of S1-M1-80 cells to the drug” value [5] read?
A: significant resistance

Source: article PMC4301998 (Bioorganic & medicinal chemistry, 2014)
